Test [1] concerns the target human RORγt ligand binding domain (RORγt LBD) (Homo sapiens (Human), UniProt P51449). In words: RORγt ThermoFluor® assay (thermal shift binding). Conditions: read-out: ThermoFluor® Assay, Kd. In a few lines:
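Thermal shift with 0.065 mg/mL RORγt LBD and 60 μM 1,8-ANS in 100 mM Hepes pH 7.0, 10 mM NaCl, 2.5 mM GSH, 0.002% Tween-20.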
(In DSF a fluorescence change marks the thermal transition of the protein.)

The next test has as its target full-length human RORγt (Homo sapiens (Human), UniProt P51449). Put plainly: RORγt (full-length human) reporter assay, conditions A or B, HEK293T cells. Conditions: for IC50: RORγt (FL) Reporter Assay A or B, IC50, HEK293T cells; for inhibition at […]: 0.22 μM compound concentration (footnote *******); for inhibition at 2 µM: 2 μM compound concentration. It is filed as cell-based. In outline: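 Dual-luciferase read-out was taken after an overnight (16–20 h) compound exposure. Firefly data were scaled between DMSO-only and saturating reference compound, Renilla-normalized, then plotted against concentration for IC50.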

[2] abbreviates: HEK-293T, 0.67 μM compound concentration (footnote ****), read-out: RORγt (FL) Reporter Assay A or B, % inhibition.
[3] abbreviates: HEK-293T, read-out: RORγt (FL) Reporter Assay A or B, % inhibition.

Kd, inhibition and IC50 data for 18 compounds are collected here from patent US10975037B2 (priority 2018, dated 2021).

The structures appear in SMILES notation. Like-named read-outs stand apart in the source and are kept apart here.

full-length human RORγt, sequence (P51449 other isoform, or with tags, fused parts or gaps): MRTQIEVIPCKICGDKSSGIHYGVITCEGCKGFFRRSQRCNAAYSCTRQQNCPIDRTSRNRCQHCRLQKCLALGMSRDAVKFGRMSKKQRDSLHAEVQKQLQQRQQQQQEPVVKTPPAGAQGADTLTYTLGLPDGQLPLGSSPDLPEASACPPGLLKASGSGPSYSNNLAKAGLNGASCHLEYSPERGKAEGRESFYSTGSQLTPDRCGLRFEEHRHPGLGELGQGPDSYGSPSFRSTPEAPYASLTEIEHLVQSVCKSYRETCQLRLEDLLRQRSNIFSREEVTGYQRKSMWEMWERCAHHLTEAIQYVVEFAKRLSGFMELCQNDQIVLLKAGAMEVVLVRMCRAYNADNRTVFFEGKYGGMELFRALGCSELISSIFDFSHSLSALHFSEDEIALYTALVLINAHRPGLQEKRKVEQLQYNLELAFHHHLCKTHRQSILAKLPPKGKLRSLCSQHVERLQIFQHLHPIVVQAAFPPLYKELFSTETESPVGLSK
human RORγt ligand binding domain (RORγt LBD), sequence (P51449 other isoform, or with tags, fused parts or gaps): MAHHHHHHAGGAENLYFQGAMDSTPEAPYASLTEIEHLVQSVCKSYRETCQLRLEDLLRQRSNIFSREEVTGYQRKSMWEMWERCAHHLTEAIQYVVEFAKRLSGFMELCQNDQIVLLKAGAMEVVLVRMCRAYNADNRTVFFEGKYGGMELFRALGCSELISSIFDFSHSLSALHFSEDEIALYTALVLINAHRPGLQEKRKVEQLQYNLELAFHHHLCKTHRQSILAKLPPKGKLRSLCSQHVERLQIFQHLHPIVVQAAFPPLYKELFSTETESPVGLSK

For the compound `CCn1nc(C(=O)NC[C@]2(C#N)CC[C@@H](S(C)(=O)=O)CC2)c(Cl)c1-c1ccc(CC(C)(C)C(F)(F)F)cc1Cl` [Example 166, 4-Chloro-5-(2-chloro-4-(3,3,3-trifluoro-2,2-dimethylpropyl)phenyl)-N-(((1s*,4s*)-1-cyano-4-(methylsulfonyl)cyclohexyl)methyl)-1-ethyl-1H-pyrazole-3-carboxamide], in test [1], the dissociation constant (Kd) was 0.71 nM. For the same compound, the inhibition at 0.07 µM on full-length human RORγt (HEK-293T, 0.07 μM compound concentration (footnote *********), read-out: RORγt (FL) Reporter Assay A or B, % inhibition) came to 88%. At full-length human RORγt, the IC50 is 0.92 nM.

As for `CCn1nc(C(=O)NC[C@]2(O)CC[C@@H](S(C)(=O)=O)CC2)c(Cl)c1-c1ccc(CC(C)(C)C(F)(F)F)cc1` [Example 167, 4-Chloro-1-ethyl-N-(((1s,4s)-1-hydroxy-4-(methylsulfonyl)cyclohexyl)methyl)-5-(4-(3,3,3-trifluoro-2,2-dimethylpropyl)phenyl)-1H-pyrazole-3-carboxamide], the dissociation constant Kd in test [1] came out at 8.6 nM. Also, the inhibition at 0.67 µM on full-length human RORγt (setting [2]) was 83%. In addition, the concentration for half-maximal inhibition (IC50) on full-length human RORγt turned out to be 24 nM.

Regarding `CCn1nc(C(=O)NC[C@H]2CC[C@H](S(C)(=O)=O)CC2)c(Cl)c1-c1ccc(CC(C)(C)C(F)(F)F)cc1` [Example 168, 4-Chloro-1-ethyl-N-(((1r,4r)-4-(methylsulfonyl)cyclohexyl)methyl)-5-(4-(3,3,3-trifluoro-2,2-dimethylpropyl)phenyl)-1H-pyrazole-3-carboxamide], the dissociation constant Kd in test [1] came out at 4 nM. Also, the inhibition at […] on full-length human RORγt (setting [3]) is 71%. The compound also returned an IC50 against full-length human RORγt of 18 nM.

Turning to `CCn1nc(C(=O)NC[C@]2(C#N)CC[C@@H](S(C)(=O)=O)CC2)c(Cl)c1-c1ccc(CC(C)(C)C(F)(F)F)cc1` [Example 169, 4-Chloro-N-(((1s*,4s*)-1-cyano-4-(methylsulfonyl)cyclohexyl)methyl)-1-ethyl-5-(4-(3,3,3-trifluoro-2,2-dimethylpropyl)phenyl)-1H-pyrazole-3-carboxamide], the Kd in test [1] was 3.4 nM. In addition, the inhibition at […] on full-length human RORγt (setting [3]) came to 85%. Half-maximal inhibition at full-length human RORγt (IC50) was put at 41 nM.

For the compound `CCn1nc(C(=O)NC[C@H]2CC[C@H](S(C)(=O)=O)CC2)c(Cl)c1-c1ccc(CCC(F)(F)F)cc1C(F)(F)F` [Example 171, 4-Chloro-1-ethyl-N-(((1r,4r)-4-(methylsulfonyl)cyclohexyl)methyl)-5-(2-(trifluoromethyl)-4-(3,3,3-trifluoropropyl)phenyl)-1H-pyrazole-3-carboxamide], the dissociation constant Kd in test [1] came out at 14 nM. At full-length human RORγt (setting [3]), the inhibition at 2 µM amounted to 24%. Moreover, at full-length human RORγt, the half-inhibitory concentration (IC50) stood at 440 nM.

On to `CCn1nc(C(=O)NC[C@H]2CC[C@H](S(C)(=O)=O)CC2)c(Cl)c1-c1ccc(N[C@H](C)C(F)(F)F)cc1C(F)(F)F` [Example 172, 4-Chloro-1-ethyl-N-(((1r,4R)-4-(methylsulfonyl)cyclohexyl)methyl)-5-(2-(trifluoromethyl)-4-(((R)-1,1,1-trifluoropropan-2-yl)amino)phenyl)-1H-pyrazole-3-carboxamide], for which, in test [1], the Kd was determined as 3.8 nM. Besides, at full-length human RORγt (setting [3]), the inhibition at 2 µM stood at 100%. The compound also yielded an IC50 on full-length human RORγt of 28 nM.

As for `CCn1nc(C(=O)NC[C@]2(O)CC[C@@H](S(C)(=O)=O)CC2)c(Cl)c1-c1ccc(CCC(F)(F)F)cc1Cl` [Example 173, 4-Chloro-5-(2-chloro-4-(3,3,3-trifluoropropyl)phenyl)-1-ethyl-N-(((1s,4s)-1-hydroxy-4-(methylsulfonyl)cyclohexyl)methyl)-1H-pyrazole-3-carboxamide], in test [1], the Kd worked out at 12 nM. Also, the inhibition at 0.67 µM at full-length human RORγt (setting [3]) turned out to be 36%. Besides, at full-length human RORγt, the concentration for half-maximal inhibition (IC50) was determined as 28 nM.

With `CCn1nc(C(=O)NC[C@H]2CC[C@H](S(C)(=O)=O)CC2)c(Cl)c1-c1ccc(CCC(F)(F)F)cc1Cl` [Example 174, 4-Chloro-5-(2-chloro-4-(3,3,3-trifluoropropyl)phenyl)-1-ethyl-N-(((1r,4r)-4-(methylsulfonyl)cyclohexyl)methyl)-1H-pyrazole-3-carboxamide], the Kd in test [1] came to 5.9 nM. Also, the inhibition at 0.67 µM at full-length human RORγt (setting [3]) came out at 40%. In addition, 38 nM corresponded to half-maximal inhibition at full-length human RORγt (IC50).

Regarding `CCn1nc(C(=O)NC[C@H]2CC[C@@H](S(C)(=O)=O)CC2)c(Cl)c1-c1ccc(N[C@H](C)C(F)(F)F)cc1Cl` [Example 175, 4-Chloro-5-(2-chloro-4-(((R)-1,1,1-trifluoropropan-2-yl)amino)phenyl)-1-ethyl-N-(((1s,4S)-4-(methylsulfonyl)cyclohexyl)methyl)-1H-pyrazole-3-carboxamide], in test [1], the Kd is 230 nM. For the same compound, the inhibition at 2 µM at full-length human RORγt (setting [3]) worked out at 88%. This compound also came in with a half-maximal inhibitory concentration (IC50) against full-length human RORγt of 510 nM.

In the case of `CCn1nc(C(=O)NC[C@H]2CC[C@H](S(C)(=O)=O)CC2)c(Cl)c1-c1ccc(N[C@H](C)C(F)(F)F)cc1Cl` [Example 176, 4-Chloro-5-(2-chloro-4-(((R)-1,1,1-trifluoropropan-2-yl)amino)phenyl)-1-ethyl-N-(((1r,4R)-4-(methylsulfonyl)cyclohexyl)methyl)-1H-pyrazole-3-carboxamide], the equilibrium dissociation constant (Kd) in test [1] was determined as 3.8 nM. Further, on full-length human RORγt (setting [2]), the inhibition at 0.67 µM worked out at 102%. On full-length human RORγt, the midpoint of inhibition, the IC50, lay at 18 nM.

As for `CCn1nc(C(=O)NC[C@H]2CC[C@H](S(C)(=O)=O)CC2)c(Cl)c1-c1ccc(CC(C)(C)C(F)(F)F)cc1F` [Example 177, 4-Chloro-1-ethyl-5-(2-fluoro-4-(3,3,3-trifluoro-2,2-dimethylpropyl)phenyl)-N-(((1r,4r)-4-(methylsulfonyl)cyclohexyl)methyl)-1H-pyrazole-3-carboxamide], the Kd in test [1] was determined as 2.2 nM. Further, the inhibition at […] at full-length human RORγt (setting [3]) was 77%. The compound also yielded an IC50 against full-length human RORγt of 7.2 nM.

As to `CCn1nc(C(=O)NC[C@]2(O)CC[C@@H](S(C)(=O)=O)CC2)c(Cl)c1-c1ccc(CC(C)(C)C(F)(F)F)cc1F` [Example 178, 4-Chloro-1-ethyl-5-(2-fluoro-4-(3,3,3-trifluoro-2,2-dimethylpropyl)phenyl)-N-(((1s,4s)-1-hydroxy-4-(methylsulfonyl)cyclohexyl)methyl)-1H-pyrazole-3-carboxamide], in test [1], the dissociation constant Kd was found to be 2.4 nM. Further, the inhibition at 0.67 µM at full-length human RORγt (setting [2]) worked out at 89%. Besides, the IC50 against full-length human RORγt amounted to 30 nM.

Take `CCn1nc(C(=O)NC[C@H]2CC[C@H](S(C)(=O)=O)CC2)c(Cl)c1-c1ccc(CCC(F)(F)F)cc1F` [Example 179, 4-Chloro-1-ethyl-5-(2-fluoro-4-(3,3,3-trifluoropropyl)phenyl)-N-(((1r,4r)-4-(methylsulfonyl)cyclohexyl)methyl)-1H-pyrazole-3-carboxamide]: in test [1], the dissociation constant (Kd) amounted to 15 nM. At full-length human RORγt (setting [3]), the inhibition at 2 µM is 52%. This compound displayed an IC50 against full-length human RORγt of 69 nM.

In the case of `CCn1nc(C(=O)NC[C@]2(O)CC[C@@H](S(C)(=O)=O)CC2)c(Cl)c1-c1ccc(CCC(F)(F)F)cc1F` [Example 180, 4-Chloro-1-ethyl-5-(2-fluoro-4-(3,3,3-trifluoropropyl)phenyl)-N-(((1s,4s)-1-hydroxy-4-(methylsulfonyl)cyclohexyl)methyl)-1H-pyrazole-3-carboxamide], the equilibrium dissociation constant (Kd) in test [1] came out at 46 nM. Also, at full-length human RORγt (setting [3]), the inhibition at 2 µM was determined as 41%. At full-length human RORγt, this compound had an IC50 of 66 nM.

As to `CCn1nc(C(=O)NC[C@H]2CC[C@H](S(C)(=O)=O)CC2)c(Cl)c1-c1ccc(N[C@H](C)C(F)(F)F)cc1F` [Example 181, 4-Chloro-1-ethyl-5-(2-fluoro-4-(((R)-1,1,1-trifluoropropan-2-yl)amino)phenyl)-N-(((1r,4R)-4-(methylsulfonyl)cyclohexyl)methyl)-1H-pyrazole-3-carboxamide], in test [1], the dissociation constant Kd was found to be 7 nM. Further, at full-length human RORγt (setting [3]), the inhibition at 2 µM was found to be 101%. At full-length human RORγt, this compound returned a half-maximal inhibitory concentration (IC50) of 45 nM.

For `CCn1nc(C(=O)NC[C@H]2CC[C@H](S(C)(=O)=O)CC2)c(Cl)c1-c1ccc(CC(C)(C)C(F)(F)F)cc1C` [Example 182, 4-Chloro-1-ethyl-5-(2-methyl-4-(3,3,3-trifluoro-2,2-dimethylpropyl)phenyl)-N-(((1r,4r)-4-(methylsulfonyl)cyclohexyl)methyl)-1H-pyrazole-3-carboxamide], the equilibrium dissociation constant (Kd) in test [1] was found to be 1 nM. In addition, the inhibition at […] at full-length human RORγt (setting [3]) amounted to 81%. At full-length human RORγt, the 50% inhibitory concentration (IC50) turned out to be 19 nM.

For `CCn1nc(C(=O)NC[C@]2(O)CC[C@@H](S(C)(=O)=O)CC2)c(Cl)c1-c1ccc(CC(C)(C)C(F)(F)F)cc1C` [Example 183, 4-Chloro-1-ethyl-N-(((1s,4s)-1-hydroxy-4-(methylsulfonyl)cyclohexyl)methyl)-5-(2-methyl-4-(3,3,3-trifluoro-2,2-dimethylpropyl)phenyl)-1H-pyrazole-3-carboxamide], the dissociation constant (Kd) in test [1] amounted to 3 nM. Moreover, the inhibition at […] on full-length human RORγt (setting [3]) was found to be 70%. Besides, the IC50 at full-length human RORγt came out at 3.9 nM.

For the compound `CCn1nc(C(=O)NC[C@H]2CC[C@H](S(C)(=O)=O)CC2)c(Cl)c1-c1ccc(N[C@H](C)C(F)(F)F)cc1C` [Example 184, 4-Chloro-1-ethyl-5-(2-methyl-4-(((R)-1,1,1-trifluoropropan-2-yl)amino)phenyl)-N-(((1r,4R)-4-(methylsulfonyl)cyclohexyl)methyl)-1H-pyrazole-3-carboxamide], the Kd in test [1] amounted to 13 nM. In addition, on full-length human RORγt (setting [3]), the inhibition at 2 µM stood at 101%. Further, the IC50 at full-length human RORγt came to 52 nM.

For orientation: Kd means the concentration at which binding is half-saturated. Broadly, the inhibition is the relative decrease from the control value, in per cent. A word on the IC50: it is the concentration needed to halve the response being measured.
